In patent US12479830B2, “Homopiperazinyl and homopiperidinyl quinazolin-4(3H)-one derivatives having multimodal activity against pain” (ESTEVE PHARMACEUTICALS, S.A., priority 2019, dated 2025):

Biological target: Human α2δ-1 subunit of Cav2.2 calcium channel (Homo sapiens, UniProt P54289)
Experiment: Human α2δ-1 subunit of Cav2.2 calcium channel assay ([3H]-gabapentin binding)
Conditions: binding to the α2δ-1 subunit of voltage-gated calcium channels, expressed as Ki class; + also covers inhibition between 1% and 50%
Description: Human α2δ-1 Subunit of Cav2.2 Calcium Channel Assay
Human α2δ-1 enriched membranes (2.5 μg) were incubated with 15 nM of radiolabeled [^3H]-Gabapentin in assay buffer containing Hepes-KOH 10 mM. pH 7.4. NSB (non specific binding) was measured by adding 10 μM pregabalin. The binding of the test compound was measured at either one concentration (% inhibition at 1 or 10 μM) or five different concentrations to determine affinity values (Ki). After 60 min incubation at 27° C., binding reaction was terminated by filtering through Multiscreen GF/C (Millipore) presoaked in 0.5% polyethyleneimine in Vacuum Manifold Station, followed by 3 washes with ice-cold filtration buffer containing 50 mM Tris-HCl, pH 7.4. Filter plates were dried at 60° C. for 1 h and 30 μL of scintillation cocktail were added to each well before radioactivity reading. Readings were performed in a Trilux 1450 Microbeta radioactive counter (Perkin Elmer).

Sequence of Human α2δ-1 subunit of Cav2.2 calcium channel (P54289 25-1103): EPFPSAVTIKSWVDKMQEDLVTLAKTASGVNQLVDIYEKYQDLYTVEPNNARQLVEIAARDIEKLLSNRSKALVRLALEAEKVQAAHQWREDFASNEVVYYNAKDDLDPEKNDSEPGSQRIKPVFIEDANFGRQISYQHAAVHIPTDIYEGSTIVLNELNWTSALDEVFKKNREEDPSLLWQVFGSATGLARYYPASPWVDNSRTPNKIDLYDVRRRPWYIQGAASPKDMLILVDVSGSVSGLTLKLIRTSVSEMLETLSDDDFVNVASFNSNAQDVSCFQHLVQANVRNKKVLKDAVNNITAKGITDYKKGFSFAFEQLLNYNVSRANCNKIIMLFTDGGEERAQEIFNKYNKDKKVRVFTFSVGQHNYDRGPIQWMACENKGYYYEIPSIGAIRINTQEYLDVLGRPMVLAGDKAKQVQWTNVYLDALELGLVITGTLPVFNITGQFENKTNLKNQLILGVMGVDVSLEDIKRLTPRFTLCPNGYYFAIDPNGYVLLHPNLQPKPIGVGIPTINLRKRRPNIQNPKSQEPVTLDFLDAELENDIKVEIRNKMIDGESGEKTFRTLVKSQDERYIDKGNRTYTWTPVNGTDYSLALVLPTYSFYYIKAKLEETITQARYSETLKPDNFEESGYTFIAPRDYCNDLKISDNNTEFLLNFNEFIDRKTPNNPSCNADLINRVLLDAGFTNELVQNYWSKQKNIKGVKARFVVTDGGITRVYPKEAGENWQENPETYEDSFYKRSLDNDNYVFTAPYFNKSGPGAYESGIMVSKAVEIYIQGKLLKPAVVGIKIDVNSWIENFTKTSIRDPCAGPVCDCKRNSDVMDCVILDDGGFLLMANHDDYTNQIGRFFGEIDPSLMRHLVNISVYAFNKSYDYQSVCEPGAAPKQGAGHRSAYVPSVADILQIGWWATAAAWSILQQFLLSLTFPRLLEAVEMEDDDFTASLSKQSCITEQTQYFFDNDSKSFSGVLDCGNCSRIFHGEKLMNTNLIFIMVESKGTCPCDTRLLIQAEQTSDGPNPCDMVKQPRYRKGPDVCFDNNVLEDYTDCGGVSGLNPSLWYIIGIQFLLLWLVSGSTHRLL

Compound	Ki
CCCC(c1nc2cnccc2c(=O)n1CC)N1CCCN(C)CC1 (centres unmarked) [Example 17, 3-ethyl-2-(1-(4-methyl-1,4-diazepan-1-yl)butyl)pyrido[3,4-d]pyrimidin-4(3H)-one]	< 500 nM
CCCC(c1nc2ccc(Cl)cc2c(=O)n1CC)N1CCCNCC1 (centres unmarked) [Example 22, 2-(1-(1,4-diazepan-1-yl)butyl)-6-chloro-3-ethylquinazolin-4(3H)-one]	< 500 nM
CCCC(c1nc2ccc(Cl)cc2c(=O)n1CCC)N1CCCN(C)CC1 (centres unmarked) [Example 23, 6-chloro-2-(1-(4-methyl-1,4-diazepan-1-yl)butyl)-3-propylquinazolin-4(3H)-one]	< 500 nM
CCCC(c1nc2c(C)cc(Br)cc2c(=O)n1CC)N1CCCN(C)CC1 (centres unmarked) [Example 25, 6-bromo-3-ethyl-8-methyl-2-(1-(4-methyl-1,4-diazepan-1-yl)butyl)quinazolin-4(3H)-one]	> 5000 nM
CCCC(c1nc2cc(F)c(Br)cc2c(=O)n1CC)N1CCCNCC1 (centres unmarked) [Example 27, 2-(1-(1,4-diazepan-1-yl)butyl)-6-bromo-3-ethyl-7-fluoroquinazolin-4(3H)-one]	< 500 nM
CCCC(c1nc2ccc(Br)cc2c(=O)n1CC)N1CCNCC(C)(C)C1 (centres unmarked) [Example 28, 6-bromo-2-(1-(6,6-dimethyl-1,4-diazepan-1-yl)butyl)-3-ethylquinazolin-4(3H)-one]	500 to 5000 nM
CCCC(c1nc2cc(F)c(F)cc2c(=O)n1CC)N1CCCN(C)CC1 (centres unmarked) [Example 29, 3-ethyl-6,7-difluoro-2-(1-(4-methyl-1,4-diazepan-1-yl)butyl)quinazolin-4(3H)-one]	< 500 nM
CCCC(c1nc2ccc(Br)cc2c(=O)n1CC)N1CCN(C)CC(C)(C)C1 (centres unmarked) [Example 30, 6-bromo-3-ethyl-2-(1-(4,6,6-trimethyl-1,4-diazepan-1-yl)butyl)quinazolin-4(3H)-one]	> 5000 nM
CCCC(c1nc2cc(Br)c(F)cc2c(=O)n1CCC)N1CCCN(C)CC1 (centres unmarked) [Example 31, 7-bromo-6-fluoro-2-(1-(4-methyl-1,4-diazepan-1-yl)butyl)-3-propylquinazolin-4(3H)-one]	< 500 nM
CCCC(c1nc2cc(F)c(Br)cc2c(=O)n1CCC)N1CCCNCC1 (centres unmarked) [Example 34, 2-(1-(1,4-diazepan-1-yl)butyl)-6-bromo-7-fluoro-3-propylquinazolin-4(3H)-one]	< 500 nM

Second part, the compound after the results:

Ki	Compound
< 500 nM	CCCC(c1nc2ccc(Br)cc2c(=O)n1CCC)N1CCCN(C)CC1 (centres unmarked) [Example 18, 6-bromo-2-(1-(4-methyl-1,4-diazepan-1-yl)butyl)-3-propylquinazolin-4(3H)-one]
< 500 nM	CCCC(c1nc2ccc(Cl)cc2c(=O)n1CC)N1CCCN(C)CC1 (centres unmarked) [Example 19, 6-chloro-3-ethyl-2-(1-(4-methyl-1,4-diazepan-1-yl)butyl)quinazolin-4(3H)-one]
< 500 nM	CCCC(c1nc2ccc(Br)cc2c(=O)n1CCC)N1CCCN(CC)CC1 (centres unmarked) [Example 20, 6-bromo-2-(1-(4-ethyl-1,4-diazepan-1-yl)butyl)-3-propylquinazolin-4(3H)-one]
< 500 nM	CCCC(c1nc2ccc(F)cc2c(=O)n1CC)N1CCCN(C)CC1 (centres unmarked) [Example 21, 3-ethyl-6-fluoro-2-(1-(4-methyl-1,4-diazepan-1-yl)butyl)quinazolin-4(3H)-one]
500 to 5000 nM	CCCC(c1nc2ccc(Br)c(C)c2c(=O)n1CC)N1CCCN(C)CC1 (centres unmarked) [Example 24, 6-bromo-3-ethyl-5-methyl-2-(1-(4-methyl-1,4-diazepan-1-yl)butyl)quinazolin-4(3H)-one]
< 500 nM	CCCC(c1nc2cc(F)c(Br)cc2c(=O)n1CCC)N1CCCN(C)CC1 (centres unmarked) [Example 26, 6-bromo-7-fluoro-2-(1-(4-methyl-1,4-diazepan-1-yl)butyl)-3-propylquinazolin-4(3H)-one]
< 500 nM	CCCC(c1nc2cc(Br)c(F)cc2c(=O)n1CC)N1CCCN(C)CC1 (centres unmarked) [Example 33, 7-bromo-3-ethyl-6-fluoro-2-(1-(4-methyl-1,4-diazepan-1-yl)butyl)quinazolin-4(3H)-one]

Biological target: T1, Human σ1 receptor (Homo sapiens, UniProt Q99720)
T1 construct: expressed in transfected cells; host or cells: HEK-293
Experiment: Human σ1 receptor radioligand assay ([3H](+)-pentazocine binding)
Conditions: binding to the σ1 receptor, expressed as Ki class; + also covers inhibition between 1% and 50%
Description: Human σ1 Receptor Radioligand Assay
Transfected HEK-293 membranes (7 μg) were incubated with 5 nM of [^3H](+)-pentazocine in assay buffer containing Tris-HCl 50 mM at pH 8. NBS (non-specific binding) was measured by adding 10 μM haloperidol. The binding of the test compound was measured at either one concentration (% inhibition at 1 or 10 μM) or five different concentrations to determine affinity values (Ki). Plates were incubated at 37° C. for 120 minutes. After the incubation period, the reaction mix was then transferred to MultiScreen HTS, FC plates (Millipore), filtered and plates were washed 3 times with ice-cold 10 mM Tris-HCL (pH7.4). Filters were dried and counted at approximately 40% efficiency in a MicroBeta scintillation counter (Perkin-Elmer) using EcoScint liquid scintillation cocktail.

T1 sequence (Q99720 whole entry): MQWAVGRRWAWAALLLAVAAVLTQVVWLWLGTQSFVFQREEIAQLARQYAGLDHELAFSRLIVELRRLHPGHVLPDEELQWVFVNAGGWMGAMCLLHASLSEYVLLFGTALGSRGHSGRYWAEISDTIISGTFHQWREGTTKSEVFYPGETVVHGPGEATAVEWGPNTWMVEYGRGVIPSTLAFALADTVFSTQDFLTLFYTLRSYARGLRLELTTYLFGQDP

Compound	Ki
CCCC(c1nc2cnccc2c(=O)n1CC)N1CCCN(C)CC1 (centres unmarked) [Example 17, 3-ethyl-2-(1-(4-methyl-1,4-diazepan-1-yl)butyl)pyrido[3,4-d]pyrimidin-4(3H)-one]	> 1000 nM
CCCC(c1nc2ccc(Cl)cc2c(=O)n1CC)N1CCCNCC1 (centres unmarked) [Example 22, 2-(1-(1,4-diazepan-1-yl)butyl)-6-chloro-3-ethylquinazolin-4(3H)-one]	> 1000 nM
CCCC(c1nc2ccc(Cl)cc2c(=O)n1CCC)N1CCCN(C)CC1 (centres unmarked) [Example 23, 6-chloro-2-(1-(4-methyl-1,4-diazepan-1-yl)butyl)-3-propylquinazolin-4(3H)-one]	500 to 1000 nM
CCCC(c1nc2c(C)cc(Br)cc2c(=O)n1CC)N1CCCN(C)CC1 (centres unmarked) [Example 25, 6-bromo-3-ethyl-8-methyl-2-(1-(4-methyl-1,4-diazepan-1-yl)butyl)quinazolin-4(3H)-one]	500 to 1000 nM
CCCC(c1nc2cc(F)c(Br)cc2c(=O)n1CC)N1CCCNCC1 (centres unmarked) [Example 27, 2-(1-(1,4-diazepan-1-yl)butyl)-6-bromo-3-ethyl-7-fluoroquinazolin-4(3H)-one]	> 1000 nM
CCCC(c1nc2ccc(Br)cc2c(=O)n1CC)N1CCNCC(C)(C)C1 (centres unmarked) [Example 28, 6-bromo-2-(1-(6,6-dimethyl-1,4-diazepan-1-yl)butyl)-3-ethylquinazolin-4(3H)-one]	500 to 1000 nM
CCCC(c1nc2cc(F)c(F)cc2c(=O)n1CC)N1CCCN(C)CC1 (centres unmarked) [Example 29, 3-ethyl-6,7-difluoro-2-(1-(4-methyl-1,4-diazepan-1-yl)butyl)quinazolin-4(3H)-one]	500 to 1000 nM
CCCC(c1nc2ccc(Br)cc2c(=O)n1CC)N1CCN(C)CC(C)(C)C1 (centres unmarked) [Example 30, 6-bromo-3-ethyl-2-(1-(4,6,6-trimethyl-1,4-diazepan-1-yl)butyl)quinazolin-4(3H)-one]	> 1000 nM
CCCC(c1nc2cc(Br)c(F)cc2c(=O)n1CCC)N1CCCN(C)CC1 (centres unmarked) [Example 31, 7-bromo-6-fluoro-2-(1-(4-methyl-1,4-diazepan-1-yl)butyl)-3-propylquinazolin-4(3H)-one]	500 to 1000 nM
CCCC(c1nc2cc(F)c(Br)cc2c(=O)n1CCC)N1CCCNCC1 (centres unmarked) [Example 34, 2-(1-(1,4-diazepan-1-yl)butyl)-6-bromo-7-fluoro-3-propylquinazolin-4(3H)-one]	> 1000 nM

Next, values leading:

Ki	Compound
< 500 nM	CCCC(c1nc2ccc(Br)cc2c(=O)n1CCC)N1CCCN(C)CC1 (centres unmarked) [Example 18, 6-bromo-2-(1-(4-methyl-1,4-diazepan-1-yl)butyl)-3-propylquinazolin-4(3H)-one]
500 to 1000 nM	CCCC(c1nc2ccc(Cl)cc2c(=O)n1CC)N1CCCN(C)CC1 (centres unmarked) [Example 19, 6-chloro-3-ethyl-2-(1-(4-methyl-1,4-diazepan-1-yl)butyl)quinazolin-4(3H)-one]
< 500 nM	CCCC(c1nc2ccc(Br)cc2c(=O)n1CCC)N1CCCN(CC)CC1 (centres unmarked) [Example 20, 6-bromo-2-(1-(4-ethyl-1,4-diazepan-1-yl)butyl)-3-propylquinazolin-4(3H)-one]
< 500 nM	CCCC(c1nc2ccc(F)cc2c(=O)n1CC)N1CCCN(C)CC1 (centres unmarked) [Example 21, 3-ethyl-6-fluoro-2-(1-(4-methyl-1,4-diazepan-1-yl)butyl)quinazolin-4(3H)-one]
< 500 nM	CCCC(c1nc2ccc(Br)c(C)c2c(=O)n1CC)N1CCCN(C)CC1 (centres unmarked) [Example 24, 6-bromo-3-ethyl-5-methyl-2-(1-(4-methyl-1,4-diazepan-1-yl)butyl)quinazolin-4(3H)-one]
< 500 nM	CCCC(c1nc2cc(F)c(Br)cc2c(=O)n1CCC)N1CCCN(C)CC1 (centres unmarked) [Example 26, 6-bromo-7-fluoro-2-(1-(4-methyl-1,4-diazepan-1-yl)butyl)-3-propylquinazolin-4(3H)-one]
< 500 nM	CCCC(c1nc2cc(Br)c(F)cc2c(=O)n1CC)N1CCCN(C)CC1 (centres unmarked) [Example 33, 7-bromo-3-ethyl-6-fluoro-2-(1-(4-methyl-1,4-diazepan-1-yl)butyl)quinazolin-4(3H)-one]
< 500 nM	CCCC(c1nc2ccc(Br)c(F)c2c(=O)n1CC)N1CCCN(C)CC1 (centres unmarked) [Example 51, 6-bromo-3-ethyl-5-fluoro-2-(1-(4-methyl-1,4-diazepan-1-yl)butyl)quinazolin-4(3H)-one]
